From BindingDB's records for patent US20250313563 (The Broad Institute, 2025) come the findings set out here.

“And” between values parts separate entries of the source, which are not always exact repeats. Equal values may be shown once. A value given as a limit tells only on which side of the number the result lay.

Assay [1] addresses Glycogen synthase kinase-3 beta (Homo sapiens, UniProt P49841). Briefly: TR-FRET Assay. In outline: (§1)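 Enzyme and test compound were first incubated together for 30 minutes in assay buffer. The kinase reaction followed and was stopped with EDTA. The pSer641 signal was read by time-resolved FRET.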
On the technique in general: TR-FRET usually uses a lanthanide donor and a delayed reading to cut background.

The target in assay [2] is Glycogen synthase kinase-3 alpha (Homo sapiens, UniProt P49840). Kind of assay: TR-FRET Assay. In outline:
as §1

Sequence of Glycogen synthase kinase-3 beta (P49841 whole entry): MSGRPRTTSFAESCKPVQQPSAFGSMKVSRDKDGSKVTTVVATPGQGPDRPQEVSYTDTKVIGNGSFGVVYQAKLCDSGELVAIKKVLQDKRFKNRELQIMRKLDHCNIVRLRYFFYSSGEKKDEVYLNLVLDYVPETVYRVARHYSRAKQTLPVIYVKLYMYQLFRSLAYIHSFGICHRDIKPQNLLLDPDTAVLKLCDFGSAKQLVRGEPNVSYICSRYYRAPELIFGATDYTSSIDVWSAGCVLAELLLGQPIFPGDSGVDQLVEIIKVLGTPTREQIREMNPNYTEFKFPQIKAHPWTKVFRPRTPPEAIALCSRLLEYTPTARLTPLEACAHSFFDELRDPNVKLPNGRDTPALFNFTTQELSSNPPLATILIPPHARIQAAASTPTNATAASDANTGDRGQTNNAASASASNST
Sequence of Glycogen synthase kinase-3 alpha (P49840 whole entry): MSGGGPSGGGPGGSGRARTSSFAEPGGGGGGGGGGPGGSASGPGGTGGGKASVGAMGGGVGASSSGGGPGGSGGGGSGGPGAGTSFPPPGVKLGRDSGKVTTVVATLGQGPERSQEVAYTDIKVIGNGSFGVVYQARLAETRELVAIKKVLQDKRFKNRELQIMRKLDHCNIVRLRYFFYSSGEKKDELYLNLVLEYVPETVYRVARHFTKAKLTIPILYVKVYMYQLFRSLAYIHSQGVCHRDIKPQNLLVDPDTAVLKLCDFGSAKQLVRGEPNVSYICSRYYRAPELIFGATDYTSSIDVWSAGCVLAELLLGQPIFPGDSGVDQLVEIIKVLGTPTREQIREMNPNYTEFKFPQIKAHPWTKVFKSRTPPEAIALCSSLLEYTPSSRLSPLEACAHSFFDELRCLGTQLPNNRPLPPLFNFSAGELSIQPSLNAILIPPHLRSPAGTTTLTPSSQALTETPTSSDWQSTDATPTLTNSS

The term IC50 denotes the concentration needed to halve the response being measured. For the compound `CCc1cc(-c2cccc([C@]3(CC)C4=CN=NC4NC4=C3C(=O)NC(C)(C)C4)c2)ccn1` (some centres undefined) [US20250313563, Compound 948370], the IC50 in assay [1] was 100 to 1000 nM; in assay [2], under 100 nM.
Regarding `CC[C@@]1(c2cccc(-c3c(F)cncc3Cl)c2)C2=CN=NC2NC2=C1C(=O)NC(C)(C)C2` (some centres undefined) [US20250313563, Compound 948371], the IC50 in assay [1] is < 100 nM and 100 to 1000 nM; in assay [2], < 100 nM and 100 to 1000 nM.
Regarding `CC[C@]1(c2cccc(C(F)(F)F)c2)C2=CN=NC2NC2=C1C(=O)N(c1cncnc1)CC2` (some centres undefined) [US20250313563, Compound 948379], the IC50 in assay [1] and in assay [2] was 100 to 1000 nM each time.
On to `Cc1cc([C@H]2CC[C@]3(CC2)C2=C(N=NC2)NC2=C3C(=O)CC(C)(C)C2)ccn1` [US20250313563, Compound 948415], for which the IC50 in assay [1] and in assay [2] was under 100 nM throughout.
As to `Cc1cc([C@H]2CC[C@@]3(CC2)C2=C(N=NC2)NC2=C3C(=O)CC(C)(C)C2)ccn1` [US20250313563, Compound 948416], the values for the IC50 in assay [1] and in assay [2] were 100 to 1000 nM and under 100 nM, respectively.
Regarding `CC[C@]1(c2cccc(-c3c(C)nn(C)c3C)c2)C2=C(CC(C)(C)NC2=O)NC2N=NC(C(F)(F)F)=C21` (some centres undefined) [US20250313563, Compound 948417], the IC50 in assay [1] lay in the range of 1000 to 5000 nM; in assay [2], 100 to 1000 nM.
Regarding `CC[C@]1(c2cccc(S(C)(=O)=O)c2)C2=C(CC(C)(C)NC2=O)NC2N=NC(C(F)(F)F)=C21` (some centres undefined) [US20250313563, Compound 948418], the IC50 in assay [1] and in assay [2] was under 100 nM throughout.
On to `CC[C@]1(c2cccc(S(=O)(=O)C(C)C)c2)C2=C(CC(C)(C)NC2=O)NC2N=NC(C(F)(F)F)=C21` (some centres undefined) [US20250313563, Compound 948419], for which the IC50 in assay [1] and in assay [2] was under 100 nM each time.
As to `CC[C@@]1(c2cccc(-c3ccnc(C)c3)c2)C2=C(CC(C)(C)NC2=O)NC2N=NC(C)=C21` (some centres undefined) [US20250313563, Compound 948420], the figures for the IC50 in assay [1] and in assay [2] were 100 to 1000 nM and under 100 nM, respectively.
On the same counts, the results for `CC[C@@]1(c2cccc(-c3c(C)nn(C)c3C)c2)C2=C(CC(C)(C)NC2=O)NC2N=NC(C(F)(F)F)=C21` (some centres undefined) [US20250313563, Compound 948421] are under 100 nM and under 100 nM.
Regarding `CC[C@@]1(c2cccc(S(C)(=O)=O)c2)C2=C(CC(C)(C)NC2=O)NC2N=NC(C(F)(F)F)=C21` (some centres undefined) [US20250313563, Compound 948422], the IC50 in assay [1] and in assay [2] was 100 to 1000 nM throughout.
For the compound `CC[C@@]1(c2cccc(S(=O)(=O)C(C)C)c2)C2=C(CC(C)(C)NC2=O)NC2N=NC(C(F)(F)F)=C21` (some centres undefined) [US20250313563, Compound 948423], the IC50 was 100 to 1000 nM in assay [1] and under 100 nM in assay [2].
`CC(=O)N1C[C@]2(C[C@@]3(CO2)C2=C(N=NC2)NC2=C3C(=O)CC(C)(C)C2)[C@H]1C` [US20250313563, Compound 948437]: the IC50 in assay [1] and in assay [2] was under 100 nM in each case.
As for `CC(=O)N1C[C@@]2(C[C@@]3(CO2)C2=C(N=NC2)NC2=C3C(=O)CC(C)(C)C2)[C@@H]1C` [US20250313563, Compound 948438], the IC50 in assay [1] and in assay [2] was under 100 nM throughout.
Regarding `CC(=O)N1C[C@]2(C[C@]3(CO2)C2=C(N=NC2)NC2=C3C(=O)CC(C)(C)C2)[C@H]1C` [US20250313563, Compound 948439], the IC50 in assay [1] and in assay [2] was under 100 nM each time.
Turning to `CC(=O)N1C[C@@]2(C[C@]3(CO2)C2=C(N=NC2)NC2=C3C(=O)CC(C)(C)C2)[C@@H]1C` [US20250313563, Compound 948440], the IC50 in assay [1] and in assay [2] was under 100 nM each time.
`CC[C@@]1(c2cccc(-c3ccncc3C)c2)C2=CN=NC2NC2=C1C(=O)NC1(CCC1)C2` (some centres undefined) [US20250313563, Compound 948512]: the IC50 was < 100 nM and 1000 to 5000 nM in assay [1]; < 100 nM and 100 to 1000 nM in assay [2].
Turning to `CC[C@]1(c2cccc(-c3ccnc(C)c3)c2)C2=C(CC3(CCOCC3)NC2=O)NC2N=NC(C)=C21` (some centres undefined) [US20250313563, Compound 948513], the IC50 was 100 to 1000 nM in assay [1] and under 100 nM in assay [2].
On the same counts, the results for `CC[C@@]1(c2cccc(-c3ccnc4ccc(Cl)cc34)c2)C2=CN=NC2NC2=C1C(=O)N(C)C(C)(C)C2` (some centres undefined) [US20250313563, Compound 948517] are under 100 nM and under 100 nM.
Regarding `CC[C@]1(c2cccc(-c3ccnc4ccc(OC)cc34)c2)C2=CN=NC2NC2=C1C(=O)NC(C)(C)C2` (some centres undefined) [US20250313563, Compound 948518], the IC50 in assay [1] and in assay [2] was over 5000 nM in each case.
Regarding `CC[C@]1(c2cccc(C3=C4CC=C(F)C=C4N=CC3)c2)C2=CN=NC2NC2=C1C(=O)NC(C)(C)C2` (some centres undefined) [US20250313563, Compound 948519], the IC50 in assay [1] and in assay [2] was over 5000 nM each time.
Consider `CC[C@]1(c2cccc(-c3ccnc(OC)c3F)c2)C2=CN=NC2NC2=C1C(=O)NC(C)(C)C2` (some centres undefined) [US20250313563, Compound 948520], for which the IC50 in assay [1] was 1000 to 5000 nM; in assay [2], 100 to 1000 nM.
On to `CC[C@@]1(c2cccc(-c3c(F)cncc3F)c2)C2=CN=NC2NC2=C1C(=O)NC(C)(C)C2` (some centres undefined) [US20250313563, Compound 948525], for which the IC50 was < 100 nM and 1000 to 5000 nM in assay [1]; < 100 nM and 100 to 1000 nM in assay [2].
As to `CC[C@@]1(c2cccc(-c3ccnn3C)c2)C2=CN=NC2NC2=C1C(=O)NC1(CCOCC1)C2` (some centres undefined) [US20250313563, Compound 948526], the results for the IC50 in assay [1] and in assay [2] were over 5000 nM and 1000 to 5000 nM, respectively.
For the compound `CC[C@@]1(c2cccc(-c3ccnc4ccc(OC)cc34)c2)C2=CN=NC2NC2=C1C(=O)NC(C)(C)C2` (some centres undefined) [US20250313563, Compound 948527], the IC50 in assay [1] and in assay [2] was under 100 nM each time.
On to `CC[C@@]1(c2cccc(C3=C4CC=C(F)C=C4N=CC3)c2)C2=CN=NC2NC2=C1C(=O)NC(C)(C)C2` (some centres undefined) [US20250313563, Compound 948528], for which the IC50 in assay [1] is 100 to 1000 nM; in assay [2], under 100 nM.
Turning to `CC[C@@]1(c2cccc(-c3ccnn3C)c2)C2=CN=NC2NC2=C1C(=O)N[C@]1(CCCOC1)C2` (some centres undefined) [US20250313563, Compound 948529], the IC50 in assay [1] is 100 to 1000 nM and 1000 to 5000 nM; in assay [2], < 100 nM and 100 to 1000 nM.
Turning to `CC[C@]1(c2cccc(-c3ccnc4ccc(Cl)cc34)c2)C2=CN=NC2NC2=C1C(=O)NC(C)(C)C2` (some centres undefined) [US20250313563, Compound 948530], the IC50 in assay [1] lay in the range of 1000 to 5000 nM; in assay [2], 100 to 1000 nM.
With `CC[C@@]1(c2cccc(-c3ccnc(OC)c3F)c2)C2=CN=NC2NC2=C1C(=O)NC(C)(C)C2` (some centres undefined) [US20250313563, Compound 948531], the half-inhibitory concentration (IC50) was over 5000 nM in assay [1] and 100 to 1000 nM in assay [2].
On to `CC[C@@]1(c2cccc(-c3c(F)cncc3OC)c2)C2=CN=NC2NC2=C1C(=O)CC(C)(C)[C@H]2F` (some centres undefined) [US20250313563, Compound 948547], for which the results for the IC50 in assay [1] and in assay [2] were 1000 to 5000 nM and 100 to 1000 nM, respectively.
For `CC[C@]1(c2cccc(-c3c(F)cncc3OC)c2)C2=C(N=NC2)NC2=C1C(=O)N(Cc1ccccc1)C2` [US20250313563, Compound 948549], the IC50 was < 100 nM and 1000 to 5000 nM in assay [1]; < 100 nM and 100 to 1000 nM in assay [2].
For the compound `CC[C@@]1(c2cccc(-c3ccnc4c3CCCC4)c2)C2=C(N=NC2)NC2=C1C(=O)N(Cc1ccccc1)C2` [US20250313563, Compound 948552], the IC50 in assay [1] was over 5000 nM; in assay [2], 100 to 1000 nM.
